Measurements: ChEMBL document CHEMBL1201862, “PubChem BioAssay data set” (2004)
Values belong to the compound of their own block, whether it stands above or below them. The source made the active and inactive calls.

How the values were obtained:
[1] = biological target: Heat shock protein HSP 90-alpha (Homo sapiens, UniProt P07900); type: functional, organism-based
[2] = biological target: 26S proteasome non-ATPase regulatory subunit 14 (Homo sapiens, UniProt O00487); assay: inhibition of proteasome subunit RPN11 – biochemical, fluorescence polarization, uHTS hits, confirmation (AID 602368); type: functional
Prothrombin = Prothrombin (Bos taurus, UniProt P00735); assay: thrombin inhibition, dose response, biochemical, fluorescence polarization, uHTS hits (AID 602369); type: functional
[3] = biological target: 72 kDa type IV collagenase (Homo sapiens, UniProt P08253); assay: Dose Response validation of uHTS RPN11 inhibitor hits using a MMP-2 Fluorescence assay.; type: functional
Streptococcus = assay: Group A Streptococcus viability loss, dose response, counter-screen for streptokinase expression inhibitor project, luminescence, BacTiterGlo (AID 1915); type: functional, organism-based;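 note: potency for reduction of bacterial viability or growth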
[4] = biological target: T1, Type-1 angiotensin II receptor (Homo sapiens, UniProt P30556); assay: AT1 receptor antagonists, dose response, selectivity assay for APJ receptor antagonist project, cell-based, uHTS hits (AID 463214); type: functional;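 note: antagonist potency against angiotensin II stimulated AT1 response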
T1 sequence (P30556 whole entry): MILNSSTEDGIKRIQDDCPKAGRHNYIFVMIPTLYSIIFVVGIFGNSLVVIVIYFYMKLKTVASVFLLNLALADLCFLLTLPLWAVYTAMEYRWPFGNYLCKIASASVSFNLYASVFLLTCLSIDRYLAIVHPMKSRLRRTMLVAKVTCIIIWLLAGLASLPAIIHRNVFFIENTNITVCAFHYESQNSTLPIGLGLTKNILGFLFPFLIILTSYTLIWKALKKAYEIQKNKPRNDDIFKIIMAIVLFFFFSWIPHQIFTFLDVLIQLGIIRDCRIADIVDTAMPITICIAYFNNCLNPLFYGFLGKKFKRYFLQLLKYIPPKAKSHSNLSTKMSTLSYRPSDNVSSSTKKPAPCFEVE

[5] = test system: Streptococcus sp. 'group A'; assay: growth inhibition of control SK(-) GAS strain, dose response, counter-screen for streptokinase expression inhibitor project, luminescence, kanamycin, BacTiterGlo, confirmation (AID 1900); type: functional, organism-based
Beta-galactosidase = Beta-galactosidase (Escherichia coli, UniProt Q8VNN2); assay: PubChem AID 485352; type: functional
[6] = biological target: Nuclear receptor subfamily 5 group A member 2 (Homo sapiens, UniProt O00482); type: functional, cell-based;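 note: HEK293T cells transfected with LRH-1 and a StAR promoter luciferase reporter; potency for inhibitors that lower LRH-1 driven reporter light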
Steroidogenic factor 1 = Steroidogenic factor 1 (Homo sapiens, UniProt Q13285); assay: Counterscreen for inverse agonists of the liver receptor homolog-1 (LRH-1; NR5A2): Luminescence-based cell-based high throughput dose response assay to identify inverse agonists of the Steroidogenic Factor 1 Nuclear Receptor (SF1; NR5A1).; type: functional
[7] = StAR promoter reporter inhibition counter-screen, dose response, counter-screen for LRH-1 inverse agonist project, cell-based, luminescence, luciferase reporter (AID 651969); type: functional
[8] = biological target: Dual specificity tyrosine-phosphorylation-regulated kinase 1A (Rattus norvegicus, UniProt Q63470); type: biochemical, Homo sapiens
HeLa = assay: HeLa cell cytotoxicity, dose response, cytotoxicity control for MITF activator project, CellTiter-Glo luminescence, cherry-pick samples (AID 540259); type: functional, cell-based; conditions: Homo sapiens
[9] = biological target: T2, Sentrin-specific protease 8 (Homo sapiens, UniProt Q96LD8); type: functional;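 note: luminescence read-out of SENP8 inhibition, dose-response confirmation following an ultra-high-throughput screen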
T2 sequence (Q96LD8 whole entry): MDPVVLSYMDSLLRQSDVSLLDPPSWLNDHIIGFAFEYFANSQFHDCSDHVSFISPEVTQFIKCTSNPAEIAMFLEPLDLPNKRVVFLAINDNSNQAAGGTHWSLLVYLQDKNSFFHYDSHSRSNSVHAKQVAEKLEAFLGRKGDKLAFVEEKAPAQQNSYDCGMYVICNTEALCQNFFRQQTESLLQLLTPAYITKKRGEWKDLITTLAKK

[10] = biological target: T3, Sentrin-specific protease 7 (Homo sapiens, UniProt Q9BQF6); type: functional;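 note: Luminescence-based dose-response confirmation of ultra-high-throughput screening hits, measuring inhibition of SENP7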
T3 sequence (Q9BQF6 whole entry): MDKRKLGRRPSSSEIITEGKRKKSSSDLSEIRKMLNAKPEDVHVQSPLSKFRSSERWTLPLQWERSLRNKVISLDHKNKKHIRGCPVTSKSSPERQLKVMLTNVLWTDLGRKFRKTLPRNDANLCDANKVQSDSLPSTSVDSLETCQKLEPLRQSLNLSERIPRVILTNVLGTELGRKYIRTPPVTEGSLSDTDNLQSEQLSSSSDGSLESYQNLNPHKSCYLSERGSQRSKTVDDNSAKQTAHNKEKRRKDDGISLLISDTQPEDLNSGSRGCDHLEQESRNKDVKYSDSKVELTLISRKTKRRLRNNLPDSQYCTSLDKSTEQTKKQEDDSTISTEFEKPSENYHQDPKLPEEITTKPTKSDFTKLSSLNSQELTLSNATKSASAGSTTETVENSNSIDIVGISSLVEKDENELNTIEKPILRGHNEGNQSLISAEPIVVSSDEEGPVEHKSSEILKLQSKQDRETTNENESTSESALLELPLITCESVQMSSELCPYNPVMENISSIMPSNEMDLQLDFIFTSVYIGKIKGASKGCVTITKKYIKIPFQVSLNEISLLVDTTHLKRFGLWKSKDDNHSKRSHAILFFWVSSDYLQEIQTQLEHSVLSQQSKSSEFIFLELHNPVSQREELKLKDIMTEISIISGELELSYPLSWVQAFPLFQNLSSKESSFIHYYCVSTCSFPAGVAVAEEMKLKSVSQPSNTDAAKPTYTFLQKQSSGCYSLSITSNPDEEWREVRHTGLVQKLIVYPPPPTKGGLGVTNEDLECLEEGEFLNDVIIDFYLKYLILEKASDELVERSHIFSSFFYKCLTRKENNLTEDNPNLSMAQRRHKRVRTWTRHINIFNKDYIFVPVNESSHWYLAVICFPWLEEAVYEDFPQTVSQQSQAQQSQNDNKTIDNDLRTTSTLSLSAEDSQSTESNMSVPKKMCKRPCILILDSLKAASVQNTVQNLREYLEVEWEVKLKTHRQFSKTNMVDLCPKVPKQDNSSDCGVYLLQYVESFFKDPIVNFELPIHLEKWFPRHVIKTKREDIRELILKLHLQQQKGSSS

[11] = biological target: T4, Sentrin-specific protease 6 (Homo sapiens, UniProt Q9GZR1); type: functional;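 note: Luminescence-based dose-response confirmatory assay of SENP6 inhibition, following up an ultra-high-throughput screen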
T4 sequence (Q9GZR1 whole entry): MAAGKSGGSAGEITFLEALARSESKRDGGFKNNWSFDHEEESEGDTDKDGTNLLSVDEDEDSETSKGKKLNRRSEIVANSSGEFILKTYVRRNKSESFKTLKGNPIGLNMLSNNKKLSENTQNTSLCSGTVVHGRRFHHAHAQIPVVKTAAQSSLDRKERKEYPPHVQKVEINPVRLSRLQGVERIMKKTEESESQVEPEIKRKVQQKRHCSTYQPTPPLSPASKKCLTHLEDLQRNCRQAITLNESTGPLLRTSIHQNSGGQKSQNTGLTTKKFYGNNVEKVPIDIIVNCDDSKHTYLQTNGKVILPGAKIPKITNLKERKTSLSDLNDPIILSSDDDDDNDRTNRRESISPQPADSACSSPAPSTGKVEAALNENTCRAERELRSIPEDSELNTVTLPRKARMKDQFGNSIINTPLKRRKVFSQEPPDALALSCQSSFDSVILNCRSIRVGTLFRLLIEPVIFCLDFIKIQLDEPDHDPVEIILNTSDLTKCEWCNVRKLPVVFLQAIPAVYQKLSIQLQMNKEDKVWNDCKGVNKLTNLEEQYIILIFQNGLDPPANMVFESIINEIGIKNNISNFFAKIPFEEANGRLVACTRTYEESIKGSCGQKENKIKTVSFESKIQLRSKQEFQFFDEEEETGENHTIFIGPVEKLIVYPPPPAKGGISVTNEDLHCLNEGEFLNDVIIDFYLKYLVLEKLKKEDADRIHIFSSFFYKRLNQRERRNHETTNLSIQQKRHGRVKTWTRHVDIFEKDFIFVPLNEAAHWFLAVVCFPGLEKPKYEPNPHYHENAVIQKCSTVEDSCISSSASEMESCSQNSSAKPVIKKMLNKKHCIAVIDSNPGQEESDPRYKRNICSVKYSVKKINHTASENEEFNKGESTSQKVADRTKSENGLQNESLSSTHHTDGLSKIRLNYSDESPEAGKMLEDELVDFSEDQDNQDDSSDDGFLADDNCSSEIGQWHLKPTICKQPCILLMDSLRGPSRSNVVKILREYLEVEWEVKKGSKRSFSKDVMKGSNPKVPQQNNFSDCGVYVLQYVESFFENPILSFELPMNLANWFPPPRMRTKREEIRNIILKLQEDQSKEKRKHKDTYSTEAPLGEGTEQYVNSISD

Caspase-3 = biological target: T5, Caspase-3 (Homo sapiens, UniProt P42574); type: functional;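 note: Dose-response selectivity test against caspase-3 for candidate inhibitors of sentrin-specific proteases (SENPs)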
T5 sequence (P42574 whole entry): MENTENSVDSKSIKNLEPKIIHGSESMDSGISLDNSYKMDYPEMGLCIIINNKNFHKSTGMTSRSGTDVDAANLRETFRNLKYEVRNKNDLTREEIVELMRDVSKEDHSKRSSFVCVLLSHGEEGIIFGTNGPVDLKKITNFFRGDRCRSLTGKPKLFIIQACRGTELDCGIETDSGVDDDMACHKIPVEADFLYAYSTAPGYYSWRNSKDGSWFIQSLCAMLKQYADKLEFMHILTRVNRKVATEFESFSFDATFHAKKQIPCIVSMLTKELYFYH

[12] = biological target: T6, Probable nicotinate-nucleotide adenylyltransferase (Staphylococcus aureus (strain N315), UniProt P65502); type: functional, Staphylococcus aureus subsp. aureus N315; conditions: read-out: IC50_Mean;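 for IC50 Mean: confirmatory dose-response retesting of NadD inhibitor hits first found in an ultra-high-throughput screen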
[13] = biological target: T6, Probable nicotinate-nucleotide adenylyltransferase; type: functional, Staphylococcus aureus subsp. aureus N315
[14] = ARNT/TACC3 interaction disruptors, potency, confirmation, biochemical, AlphaScreen, cherry-picked samples (AID 651703); type: functional, Homo sapiens;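 note: His-tagged ARNT PAS-B domain paired with GST-TACC3 E629A dimer coactivator fragment; potency of inhibitors that break up the complex and lower AlphaScreen signal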

Sequence of Steroidogenic factor 1 (Q13285 whole entry): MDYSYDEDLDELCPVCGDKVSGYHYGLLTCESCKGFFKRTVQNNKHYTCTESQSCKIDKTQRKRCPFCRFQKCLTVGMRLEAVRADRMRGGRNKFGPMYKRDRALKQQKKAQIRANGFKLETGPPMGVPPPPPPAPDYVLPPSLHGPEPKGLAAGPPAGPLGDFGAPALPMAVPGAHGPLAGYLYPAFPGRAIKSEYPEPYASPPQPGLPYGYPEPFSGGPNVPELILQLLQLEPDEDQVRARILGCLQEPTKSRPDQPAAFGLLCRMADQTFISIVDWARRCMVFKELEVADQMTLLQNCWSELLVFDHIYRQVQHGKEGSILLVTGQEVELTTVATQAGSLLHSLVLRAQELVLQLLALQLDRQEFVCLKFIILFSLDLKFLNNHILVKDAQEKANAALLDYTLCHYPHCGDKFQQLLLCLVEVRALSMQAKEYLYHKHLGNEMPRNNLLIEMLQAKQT
Sequence of 72 kDa type IV collagenase (P08253 whole entry): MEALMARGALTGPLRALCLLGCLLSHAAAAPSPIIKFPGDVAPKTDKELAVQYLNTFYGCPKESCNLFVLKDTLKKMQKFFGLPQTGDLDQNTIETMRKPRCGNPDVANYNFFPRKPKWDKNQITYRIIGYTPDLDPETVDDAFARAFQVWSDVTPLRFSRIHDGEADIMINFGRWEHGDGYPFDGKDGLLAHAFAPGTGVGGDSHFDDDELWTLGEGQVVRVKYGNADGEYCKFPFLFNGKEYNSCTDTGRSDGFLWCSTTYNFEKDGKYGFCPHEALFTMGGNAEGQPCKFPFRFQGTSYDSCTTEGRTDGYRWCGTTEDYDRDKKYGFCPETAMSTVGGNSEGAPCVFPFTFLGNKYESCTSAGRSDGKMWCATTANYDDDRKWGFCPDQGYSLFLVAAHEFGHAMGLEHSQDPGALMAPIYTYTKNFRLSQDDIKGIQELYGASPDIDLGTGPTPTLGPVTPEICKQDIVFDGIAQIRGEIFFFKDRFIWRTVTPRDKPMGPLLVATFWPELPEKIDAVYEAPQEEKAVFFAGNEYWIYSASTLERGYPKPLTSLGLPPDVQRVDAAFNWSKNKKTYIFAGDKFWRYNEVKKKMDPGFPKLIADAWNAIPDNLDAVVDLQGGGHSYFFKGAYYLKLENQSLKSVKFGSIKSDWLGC
Sequence of Nuclear receptor subfamily 5 group A member 2 (O00482 whole entry): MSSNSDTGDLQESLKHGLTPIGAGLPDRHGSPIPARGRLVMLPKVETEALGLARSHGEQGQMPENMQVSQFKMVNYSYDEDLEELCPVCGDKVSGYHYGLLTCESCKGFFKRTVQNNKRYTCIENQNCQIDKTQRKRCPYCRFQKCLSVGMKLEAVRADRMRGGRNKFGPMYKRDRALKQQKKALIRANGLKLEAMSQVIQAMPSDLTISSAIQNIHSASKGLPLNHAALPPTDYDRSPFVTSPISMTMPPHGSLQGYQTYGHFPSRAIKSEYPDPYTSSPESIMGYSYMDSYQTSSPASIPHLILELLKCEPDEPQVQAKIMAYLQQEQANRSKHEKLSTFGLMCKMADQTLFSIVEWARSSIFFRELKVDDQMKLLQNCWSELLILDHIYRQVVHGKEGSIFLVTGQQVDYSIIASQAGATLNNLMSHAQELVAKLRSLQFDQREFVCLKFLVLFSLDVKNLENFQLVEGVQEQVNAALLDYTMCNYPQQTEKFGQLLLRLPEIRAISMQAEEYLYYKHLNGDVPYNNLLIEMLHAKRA
Sequence of Beta-galactosidase (Q8VNN2 whole entry): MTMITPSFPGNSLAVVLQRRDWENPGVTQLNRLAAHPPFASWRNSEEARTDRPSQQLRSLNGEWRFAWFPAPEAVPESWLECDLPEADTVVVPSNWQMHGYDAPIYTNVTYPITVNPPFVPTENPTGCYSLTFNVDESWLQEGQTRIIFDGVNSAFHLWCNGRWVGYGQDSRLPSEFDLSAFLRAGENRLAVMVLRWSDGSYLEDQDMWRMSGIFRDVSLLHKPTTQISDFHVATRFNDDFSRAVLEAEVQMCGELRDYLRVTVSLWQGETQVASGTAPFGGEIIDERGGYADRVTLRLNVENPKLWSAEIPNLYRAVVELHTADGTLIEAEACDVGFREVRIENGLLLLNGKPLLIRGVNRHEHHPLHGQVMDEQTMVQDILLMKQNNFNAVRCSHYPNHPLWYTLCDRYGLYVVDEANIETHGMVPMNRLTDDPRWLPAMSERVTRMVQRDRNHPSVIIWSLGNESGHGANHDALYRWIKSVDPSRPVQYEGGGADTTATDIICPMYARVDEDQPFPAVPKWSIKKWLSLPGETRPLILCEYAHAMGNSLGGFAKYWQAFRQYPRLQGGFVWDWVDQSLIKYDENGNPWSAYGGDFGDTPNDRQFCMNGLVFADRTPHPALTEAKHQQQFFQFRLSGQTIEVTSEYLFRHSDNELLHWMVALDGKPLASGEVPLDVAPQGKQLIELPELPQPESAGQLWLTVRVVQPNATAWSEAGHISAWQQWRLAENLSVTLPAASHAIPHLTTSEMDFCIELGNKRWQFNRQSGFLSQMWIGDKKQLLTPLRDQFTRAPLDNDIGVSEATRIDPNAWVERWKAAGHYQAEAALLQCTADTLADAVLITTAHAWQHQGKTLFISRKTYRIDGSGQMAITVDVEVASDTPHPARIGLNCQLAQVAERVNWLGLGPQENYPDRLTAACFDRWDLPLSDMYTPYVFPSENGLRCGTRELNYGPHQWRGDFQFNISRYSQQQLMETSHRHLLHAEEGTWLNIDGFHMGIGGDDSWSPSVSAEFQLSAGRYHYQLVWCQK
Sequence of 26S proteasome non-ATPase regulatory subunit 14 (O00487 whole entry): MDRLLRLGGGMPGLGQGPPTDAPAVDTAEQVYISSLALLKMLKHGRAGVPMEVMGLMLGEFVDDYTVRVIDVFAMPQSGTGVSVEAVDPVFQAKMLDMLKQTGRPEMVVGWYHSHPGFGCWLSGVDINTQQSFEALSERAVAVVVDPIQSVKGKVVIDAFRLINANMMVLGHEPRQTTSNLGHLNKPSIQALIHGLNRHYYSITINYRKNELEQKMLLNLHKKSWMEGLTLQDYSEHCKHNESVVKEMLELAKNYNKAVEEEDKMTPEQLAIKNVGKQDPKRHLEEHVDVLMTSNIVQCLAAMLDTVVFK

Structure (SMILES): Oc1cccc2ccc(/C=C/c3cccs3)nc12
EC50 (Streptococcus): 4.2 µM (active) | IC50 [4]: 10.3 µM (active) | EC50 [5]: 1.92 µM (active) | EC50 (Beta-galactosidase): > 40 µM (inactive)

Structure (SMILES): NC(=O)c1ccccc1NCC(=O)c1ccc(F)cc1
IC50 [4]: 21.6 µM (not active) | EC50 (Beta-galactosidase): > 40 µM (inactive)

Structure (SMILES): N#CCSc1ccccc1NC(=O)CN1C(=O)C2CC=CCC2C1=O (stereo not drawn)
IC50 [6]: 6.85 µM (active) | IC50 (Steroidogenic factor 1): 2.83 µM (active) | IC50 [7]: 35.9 µM (inactive)

Structure (SMILES): COc1ccc(/C=C2\SC(=S)N(C(C)C(=O)NC3C=CS(=O)(=O)C3)C2=O)cc1 (stereo not drawn)
AC50 [8]: 2.73 µM (active)

Structure (SMILES): Fc1ccc(NC(S)=Nc2ccc(Cl)cc2Cl)cc1
IC50 [4]: > 40 µM (not active) | EC50 (Beta-galactosidase): > 40 µM (inactive)

Structure (SMILES): CCc1ccccc1NC(=O)CSc1nnc([C@@H]2CCCN2C(=O)OC(C)(C)C)o1
IC50 [6]: 12 µM (inactive) | IC50 (Steroidogenic factor 1): 1.86 µM (active) | IC50 [7]: 35.9 µM (inactive)

Structure (SMILES): Clc1ccc(COn2nnc3ccccc32)c(Cl)c1
AC50 (HeLa): 77.9 µM (active) | IC50 [9]: 35.3 µM (active) | IC50 [10]: 8.88 µM (active) | IC50 [11]: 31.2 µM (active) | IC50 (Caspase-3): 24.1 µM (active)

Structure (SMILES): O=C(N[C@H]1CC[C@H](CCn2cc(-c3ccccn3)nn2)O[C@H]1CO)c1ccccc1
AC50 [14]: 78.4 µM (active)

Structure (SMILES): N=C(N)NC(=O)c1nc(Cl)c(N)nc1N
AC50 [8]: 9.17 µM (active)

Structure (SMILES): C=CCn1c(=O)/c(=C2/Sc3cc(OC)ccc3N2C)s/c1=C1\C(=O)N(CC)C(=S)N1C
IC50 [4]: > 40 µM (not active) | EC50 (Beta-galactosidase): > 40 µM (inactive)

Structure (SMILES): COc1ccc(NN=C2C(=O)CC(C)(C)CC2=O)c(OC)c1
IC50 [2]: 27 µM (active) | IC50 (Prothrombin): 27.3 µM (active) | IC50 [3]: > 100 µM (inactive)

Structure (SMILES): CCCc1nnc(SCC(=O)Nc2ccc(C(=O)OCC)cc2)o1
IC50 [6]: 35.9 µM (inactive) | IC50 (Steroidogenic factor 1): 1.61 µM (active) | IC50 [7]: 35.9 µM (inactive)

Continued, values first:

AC50 [1]: 5.23 µM (active)
Structure (SMILES): O=C(CCCNC(=O)c1ccc(Cl)cc1)OCc1cccc(Br)c1

IC50 [2]: 33.9 µM (active) | IC50 (Prothrombin): 35.5 µM (active) | IC50 [3]: > 100 µM (inactive)
Structure (SMILES): CC(=O)c1cccc(NC(=O)CCc2nc3sc4c(c3c(=O)[nH]2)CCCC4)c1

AC50 [1]: 3.92 µM (active)
Structure (SMILES): Cc1cc(Cl)ccc1C(=O)C1CCCN(C(=O)c2cncs2)C1 (stereo not drawn)

IC50 [2]: 17.1 µM (active) | IC50 (Prothrombin): 15.5 µM (active) | IC50 [3]: > 100 µM (inactive)
Structure (SMILES): CC1=C(C(=O)c2ccccc2)C(c2ccc(N3CCOCC3)cc2)NC(=O)N1 (stereo not drawn)

IC50 [12]: 26.7 µM (active) | IC50 [13]: 8.52 µM (active)
Structure (SMILES): Cc1ccc(Nc2nnc(SCC(O)=C(C#N)c3nc4ccccc4[nH]3)s2)c(C)c1

IC50 [2]: 13.1 µM (active) | IC50 (Prothrombin): > 100 µM (inactive) | IC50 [3]: > 100 µM (inactive)
Structure (SMILES): CCOc1ccc(CCNC(=O)c2nnn(CC(=O)Nc3ccc(C)cc3)c2N)cc1OCC
